This note sets out measurements from patent publication US8435561B2 (Besins Healthcare Luxembourg Sarl, priority 2001, dated 2013).

A short description of this data set: Comparative particle size study (Mastersizer 2000 laser particle sizer). In kind it is physicochemical. The conditions noted are these: in sesame seed oil, olive oil, colza oil or almond oil, compared to that obtained in peanut oil.

As for `CC(=O)[C@H]1CC[C@H]2[C@@H]3CCC4=CC(=O)CC[C@]4(C)[C@H]3CC[C@]12C` [Micronized Progesterone, progesterone], the “size distribution of progesterone” value is recorded as “comparable”.
